# From ChEMBL document CHEMBL1201861, “Genomics of Drug Sensitity in Cancer screening data, Wellcome Trust Sanger Institute”
# Values joined by “and” are separate entries in the source; they are usually repeats but may differ in a detail not shown here. Equal entries are not always repeated. Where a SMILES comes first, the peptide text is derived from it. The star is where a group is joined. Cbz = O=C(OCc1ccccc1)*
# Key:
# Assay in all cases: cells
# [1] = tested on: Becker; format: functional, cell-based, Homo sapiens;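 also: growth inhibition of Becker cells, read out with a cell viability assay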
# Description: SANGER: Inhibition of human Becker cell growth in a cell viability assay.
# [2] = tested on: Calu-6; format: functional, cell-based, Homo sapiens;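 also: growth of human Calu-6 cells, read out by a cell viability assay, IC50 marking inhibition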
# Description: SANGER: Inhibition of human Calu-6 cell growth in a cell viability assay.
# [3] = tested on: ML-2; format: functional, cell-based, Homo sapiens;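 also: growth inhibition of ML-2 cells, measured with a cell viability readout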
# Description: SANGER: Inhibition of human ML-2 cell growth in a cell viability assay.
# [4] = tested on: NMC-G1; format: functional, cell-based, Homo sapiens;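 also: growth inhibition of the NMC-G1 cell line, measured with a cell viability read-out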
# Description: SANGER: Inhibition of human NMC-G1 cell growth in a cell viability assay.
# [5] = tested on: LB996-RCC; format: functional, cell-based, Homo sapiens
# Description: SANGER: Inhibition of human LB996-RCC cell growth in a cell viability assay.
# [6] = tested on: EW-13; format: functional, cell-based, Homo sapiens; conditions: read-out: IC50;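 also: growth inhibition of EW-13 cells, read out with a cell viability assay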
# Description: SANGER: Inhibition of human EW-13 cell growth in a cell viability assay.
# [7] = tested on: TE-6; format: functional, cell-based, Homo sapiens;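 also: growth inhibition of TE-6 cells, read out with a cell viability assay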
# Description: SANGER: Inhibition of human TE-6 cell growth in a cell viability assay.
# [8] = tested on: SF-539; format: functional, cell-based, Homo sapiens;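 also: Read-out is a cell viability assay, with IC50 reflecting inhibition of cell growth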
# Description: SANGER: Inhibition of human SF539 cell growth in a cell viability assay.
# [9] = tested on: L-428; format: functional, cell-based, Homo sapiens
# Description: SANGER: Inhibition of human L-428 cell growth in a cell viability assay.
# [10] = tested on: NB13; format: functional, cell-based, Homo sapiens;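 also: cell viability readout measuring growth inhibition of human NB13 cells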
# Description: SANGER: Inhibition of human NB13 cell growth in a cell viability assay.
# [11] = tested on: IST-MEL1; format: functional, cell-based, Homo sapiens;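 also: growth inhibition of the cell line, read out with a cell viability assay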
# Description: SANGER: Inhibition of human IST-MEL1 cell growth in a cell viability assay.
# [12] = tested on: SW982; format: functional, cell-based; conditions: Homo sapiens;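 also: growth inhibition of SW982 cells, read out with a cell viability assay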
# Description: SANGER: Inhibition of human SW982 cell growth in a cell viability assay.
# [13] = tested on: SK-LMS-1; format: functional, cell-based, Homo sapiens;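 also: growth inhibition of human SK-LMS-1 cells, read out with a cell viability assay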
# Description: SANGER: Inhibition of human SK-LMS-1 cell growth in a cell viability assay.
# [14] = tested on: ES5; format: functional, cell-based, Homo sapiens;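 also: growth inhibition of human ES5 cells, read out by a cell viability assay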
# Description: SANGER: Inhibition of human ES5 cell growth in a cell viability assay.
# [15] = tested on: A704; format: functional, cell-based; conditions: Homo sapiens;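 also: growth inhibition of human A704 cells, read out with a cell viability assay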
# Description: SANGER: Inhibition of human A704 cell growth in a cell viability assay.
# [16] = tested on: MS-1; format: functional, cell-based, Homo sapiens;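 also: growth inhibition of MS-1 cells, read out by cell viability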
# Description: SANGER: Inhibition of human MS-1 cell growth in a cell viability assay.
# [17] = tested on: MEG-01; format: functional, cell-based, Homo sapiens;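 also: growth inhibition of MEG-01 cells, read out by a cell viability assay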
# Description: SANGER: Inhibition of human MEG-01 cell growth in a cell viability assay.
# [18] = tested on: TE-9; format: functional, cell-based, Homo sapiens;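 also: cell growth inhibition, measured with a cell viability readout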
# Description: SANGER: Inhibition of human TE-9 cell growth in a cell viability assay.
# [19] = tested on: LB831-BLC; format: functional, cell-based, Homo sapiens;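 also: growth inhibition of LB831-BLC cells, read out with a cell viability assay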
# Description: SANGER: Inhibition of human LB831-BLC cell growth in a cell viability assay.
# [20] = tested on: K5; format: functional, cell-based, Homo sapiens
# Description: SANGER: Inhibition of human K5 cell growth in a cell viability assay.
# [21] = tested on: DB; format: functional, cell-based, Homo sapiens
# Description: SANGER: Inhibition of human DB cell growth in a cell viability assay.
# [22] = tested on: Ramos-2G6-4C10; format: functional, cell-based, Homo sapiens;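 also: growth inhibition of the cell line, measured by a cell viability read-out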
# Description: SANGER: Inhibition of human Ramos-2G6-4C10 cell growth in a cell viability assay.
# [23] = tested on: TE-1; format: functional, cell-based, Homo sapiens;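 also: growth inhibition of the human TE-1 cell line, read out with a cell viability assay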
# Description: SANGER: Inhibition of human TE-1 cell growth in a cell viability assay.
# [24] = tested on: NB69; format: functional, cell-based, Homo sapiens;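 also: growth inhibition of NB69 cells, determined by a cell viability assay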
# Description: SANGER: Inhibition of human NB69 cell growth in a cell viability assay.
# [25] = tested on: MOLT-4; format: functional, cell-based, Homo sapiens;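 also: growth inhibition of MOLT-4 cells, determined with a cell viability readout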
# Description: SANGER: Inhibition of human MOLT-4 cell growth in a cell viability assay.
# [26] = tested on: NCI-H209; format: functional, cell-based, Homo sapiens;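 also: growth inhibition of human NCI-H209 cells, measured by a cell viability assay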
# Description: SANGER: Inhibition of human NCI-H209 cell growth in a cell viability assay.
# [27] = tested on: D-502MG; format: functional, cell-based, Homo sapiens
# Description: SANGER: Inhibition of human D-502MG cell growth in a cell viability assay.
# [28] = tested on: SNB-75; format: functional, cell-based, Homo sapiens;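 also: cell viability assay measuring growth inhibition of human SNB-75 cells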
# Description: SANGER: Inhibition of human SNB75 cell growth in a cell viability assay.
# [29] = tested on: EM-2; format: functional, cell-based, Homo sapiens;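 also: growth inhibition of EM-2 cells, read out with a cell viability assay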
# Description: SANGER: Inhibition of human EM-2 cell growth in a cell viability assay.
# [30] = tested on: AM-38; format: functional, cell-based, Homo sapiens;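 also: growth inhibition of AM-38 cells of human origin, read out by a cell viability assay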
# Description: SANGER: Inhibition of human AM-38 cell growth in a cell viability assay.
# [31] = tested on: HT-144; format: functional, cell-based, Homo sapiens
# Description: SANGER: Inhibition of human HT-144 cell growth in a cell viability assay.
# [32] = tested on: NTERA-2-cl-D1; format: functional, cell-based, Homo sapiens;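 also: inhibition of cell growth, measured with a cell viability assay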
# Description: SANGER: Inhibition of human NTERA-S-cl-D1 cell growth in a cell viability assay.
# [33] = tested on: DEL; format: functional, cell-based, Homo sapiens;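 also: growth inhibition of the human DEL cell line, read out with a cell viability assay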
# Description: SANGER: Inhibition of human DEL cell growth in a cell viability assay.
# [34] = tested on: SJSA-1; format: functional, cell-based, Homo sapiens;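 also: growth inhibition of human SJSA-1 cells, read out through a cell viability measurement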
# Description: SANGER: Inhibition of human SJSA-1 cell growth in a cell viability assay.
# [35] = tested on: LS-123; format: functional, cell-based, Homo sapiens
# Description: SANGER: Inhibition of human LS-123 cell growth in a cell viability assay.
# [36] = tested on: SW684; format: functional, cell-based, Homo sapiens; conditions: read-out: IC50;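 also: growth inhibition of human SW684 cells, measured by a cell viability assay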
# Description: SANGER: Inhibition of human SW684 cell growth in a cell viability assay.
# [37] = tested on: HDLM-2; format: functional, cell-based, Homo sapiens;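 also: cell viability assay measuring suppression of HDLM-2 proliferation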
# Description: SANGER: Inhibition of human HDLM-2 cell growth in a cell viability assay.
# [38] = tested on: SW 954; format: functional, cell-based, Homo sapiens;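 also: growth inhibition of SW954 human cancer cells, read out as cell viability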
# Description: SANGER: Inhibition of human SW954 cell growth in a cell viability assay.
# [39] = tested on: NCI-H82; format: functional, cell-based, Homo sapiens;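 also: growth inhibition of NCI-H82 cells, measured with a cell viability readout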
# Description: SANGER: Inhibition of human NCI-H82 cell growth in a cell viability assay.
# [40] = tested on: TK-10; format: functional, cell-based, Homo sapiens;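 also: growth inhibition of TK-10 cells, read out in a cell viability assay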
# Description: SANGER: Inhibition of human TK10 cell growth in a cell viability assay.
# [41] = tested on: TGW; format: functional, cell-based, Homo sapiens;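 also: growth inhibition of human TGW cells, read out with a cell viability assay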
# Description: SANGER: Inhibition of human TGW cell growth in a cell viability assay.
# [42] = tested on: SHP77; format: functional, cell-based, Homo sapiens, SHP-77;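 also: growth inhibition of human SHP-77 cells measured by a cell viability assay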
# Description: SANGER: Inhibition of human SHP-77 cell growth in a cell viability assay.
# [43] = tested on: GAK; format: functional, cell-based, Homo sapiens; conditions: gak;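 also: cell growth inhibition read out by a cell viability assay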
# Description: SANGER: Inhibition of human GAK cell growth in a cell viability assay.
# [44] = tested on: CTB-1; format: functional, cell-based, Homo sapiens
# Description: SANGER: Inhibition of human CTB-1 cell growth in a cell viability assay.
# [45] = tested on: A3-KAW; format: functional, cell-based, Homo sapiens;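 also: growth inhibition of human A3-KAW cells, read out with a cell viability assay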
# Description: SANGER: Inhibition of human A3-KAW cell growth in a cell viability assay.
# [46] = tested on: MHH-NB-11; format: functional, cell-based, Homo sapiens;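 also: growth inhibition of human MHH-NB-11 cells, read out by a cell viability assay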
# Description: SANGER: Inhibition of human MHH-NB-11 cell growth in a cell viability assay.
# [47] = tested on: ES8; format: functional, cell-based, Homo sapiens;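 also: growth inhibition of human ES8 cells, read out with a cell viability assay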
# Description: SANGER: Inhibition of human ES8 cell growth in a cell viability assay.
# [48] = tested on: LXF-289 cell line; format: functional, cell-based; conditions: Homo sapiens
# Description: SANGER: Inhibition of human LXF-289 cell growth in a cell viability assay.
# [49] = tested on: ES6; format: functional, cell-based; conditions: Homo sapiens;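 also: growth inhibition of human ES6 cells, read out with a cell viability assay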
# Description: SANGER: Inhibition of human ES6 cell growth in a cell viability assay.
# [50] = tested on: LB2518-MEL; format: functional, cell-based; conditions: Homo sapiens;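 also: growth inhibition of human LB2518-MEL cells, measured with a cell viability assay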
# Description: SANGER: Inhibition of human LB2518-MEL cell growth in a cell viability assay.
# [51] = tested on: A388; format: functional, cell-based; conditions: Homo sapiens;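 also: growth inhibition of human A388 cells, read out with a cell viability assay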
# Description: SANGER: Inhibition of human A388 cell growth in a cell viability assay.
compound,measurement,setting,value
CC(C)C[C@@H](C=O)NC(=O)[C@H](CC(C)C)NC(=O)[C@H](CC(C)C)NC(=O)OCc1ccccc1 [MG-132] (Cbz-Leu-Leu-Leu-aldehyde),IC50,[1]; becker,796 nM and > 1000 nM
same,IC50,"[2]; Homo sapiens, Calu-6",> 1000 nM
same,IC50,[2]; calu-6,> 1000 nM
same,IC50,[3]; ml-2,118 nM and 473 nM
same,IC50,[4]; nmc-g1,> 1000 nM
same,IC50,[5]; lb996-rcc,> 1000 nM
same,IC50,"[6]; Homo sapiens, EW-13",> 1000 nM
same,IC50,[6]; ew-13,> 1000 nM
same,IC50,[7]; te-6,> 1000 nM
same,IC50,[8]; sf-539,> 1000 nM
same,IC50,"[9]; Homo sapiens, L-428",> 1000 nM
same,IC50,[9]; l-428,> 1000 nM
same,IC50,[10]; nb13,> 1000 nM
same,IC50,[11]; ist-mel1,> 1000 nM
same,IC50,[12],> 1000 nM
same,IC50,[13]; sk-lms-1,193 nM and > 1000 nM
same,IC50,[14]; es5,> 1000 nM
same,IC50,[15],487 nM
same,IC50,"[16]; Homo sapiens, MS-1",> 1000 nM
same,IC50,[16]; ms-1,> 1000 nM
same,IC50,[17]; meg-01,> 1000 nM
same,IC50,[18]; te-9,610 nM and > 1000 nM
same,IC50,[19]; lb831-blc,193 nM and 476 nM
same,IC50,[20]; k5,> 1000 nM
same,IC50,[21]; db,> 1000 nM
same,IC50,"[22]; Homo sapiens, Ramos-2G6-4C10",> 1000 nM
same,IC50,[22]; ramos-2g6-4c10,> 1000 nM
same,IC50,[23]; te-1,451 nM and > 1000 nM
same,IC50,[24]; nb69,> 1000 nM
same,IC50,[25]; molt-4,> 1000 nM
same,IC50,[26]; nci-h209,> 1000 nM
same,IC50,[27]; d-502mg,> 1000 nM
same,IC50,[28]; snb-75,> 1000 nM
same,IC50,[29]; em-2,> 1000 nM and 878 nM
same,IC50,[30]; am-38,> 1000 nM
same,IC50,[31]; ht-144,139 nM and 334 nM
same,IC50,[32]; ntera-2-cl-d1,57.7 nM and 426 nM
same,IC50,[33]; del,> 1000 nM
same,IC50,"[34]; Homo sapiens, SJSA-1",> 1000 nM
same,IC50,[34]; sjsa-1,> 1000 nM
same,IC50,[35]; ls-123,> 1000 nM
same,IC50,[36]; sw684,> 1000 nM
same,IC50,[37]; hdlm-2,> 1000 nM
same,IC50,"[38]; Homo sapiens, SW 954",> 1000 nM
same,IC50,[38]; sw 954,> 1000 nM
same,IC50,[39]; nci-h82,> 1000 nM
same,IC50,[40]; tk-10,254 nM and > 1000 nM
same,IC50,[41]; tgw,> 1000 nM
same,IC50,[42]; shp-77,> 1000 nM
same,IC50,[43],205 nM and > 1000 nM
same,IC50,[44]; ctb-1,780 nM and > 1000 nM
same,IC50,[45]; a3-kaw,> 1000 nM
same,IC50,"[46]; Homo sapiens, MHH-NB-11",> 1000 nM
same,IC50,[46]; mhh-nb-11,> 1000 nM
same,IC50,[47]; es8,248 nM and > 1000 nM
CC(C)C[C@H](NC(=O)[C@H](Cc1ccccc1)NC(=O)c1cnccn1)B(O)O [BORTEZOMIB],IC50,"[1]; Homo sapiens, Becker",1.83 nM
same,IC50,"[2]; Homo sapiens, Calu-6",1.29 nM
same,IC50,"[3]; Homo sapiens, ML-2",0.821 nM
same,IC50,"[4]; Homo sapiens, NMC-G1",3.68 nM
same,IC50,"[5]; Homo sapiens, LB996-RCC",3.4 nM
same,IC50,"[6]; Homo sapiens, EW-13",> 20 nM
same,IC50,"[7]; Homo sapiens, TE-6",> 20 nM
same,IC50,"[8]; Homo sapiens, SF-539",> 20 nM
same,IC50,"[9]; Homo sapiens, L-428",> 20 nM
same,IC50,"[10]; Homo sapiens, NB13",2 nM
same,IC50,"[11]; Homo sapiens, IST-MEL1",0.917 nM
same,IC50,"[13]; Homo sapiens, SK-LMS-1",0.854 nM
same,IC50,"[14]; Homo sapiens, ES5",10.4 nM
same,IC50,[48],0.269 nM
same,IC50,"[16]; Homo sapiens, MS-1",> 20 nM
same,IC50,"[17]; Homo sapiens, MEG-01",3.49 nM
same,IC50,"[18]; Homo sapiens, TE-9",0.182 nM
same,IC50,"[19]; Homo sapiens, LB831-BLC",0.641 nM
same,IC50,"[20]; Homo sapiens, K5",1.28 nM
same,IC50,"[21]; Homo sapiens, DB",3.41 nM
same,IC50,"[22]; Homo sapiens, Ramos-2G6-4C10",0.693 nM
same,IC50,"[23]; Homo sapiens, TE-1",1.03 nM
same,IC50,[49],< 0.0781 nM
same,IC50,[50],0.425 nM
same,IC50,"[24]; Homo sapiens, NB69",2.46 nM
same,IC50,"[25]; Homo sapiens, MOLT-4",2.13 nM
same,IC50,"[26]; Homo sapiens, NCI-H209",> 20 nM
same,IC50,"[27]; Homo sapiens, D-502MG",6.37 nM
same,IC50,"[28]; Homo sapiens, SNB-75",0.912 nM
same,IC50,"[29]; Homo sapiens, EM-2",1.16 nM
same,IC50,"[30]; Homo sapiens, AM-38",> 20 nM
same,IC50,"[31]; Homo sapiens, HT-144",0.576 nM
same,IC50,"[32]; Homo sapiens, NTERA-2-cl-D1",0.243 nM
same,IC50,"[33]; Homo sapiens, DEL",> 20 nM
same,IC50,"[34]; Homo sapiens, SJSA-1",2.21 nM
same,IC50,"[35]; Homo sapiens, LS-123",2.02 nM
same,IC50,"[36]; Homo sapiens, SW684",0.821 nM
same,IC50,"[37]; Homo sapiens, HDLM-2",> 20 nM
same,IC50,"[38]; Homo sapiens, SW 954",2.9 nM
same,IC50,[51],0.356 nM
same,IC50,"[39]; Homo sapiens, NCI-H82",> 20 nM
same,IC50,"[40]; Homo sapiens, TK-10",0.679 nM
same,IC50,"[41]; Homo sapiens, TGW",16.5 nM
same,IC50,"[42]; Homo sapiens, SHP77",> 20 nM
same,IC50,"[44]; Homo sapiens, CTB-1",9.67 nM
same,IC50,"[45]; Homo sapiens, A3-KAW",1.28 nM
same,IC50,"[46]; Homo sapiens, MHH-NB-11",4.91 nM
same,IC50,"[47]; Homo sapiens, ES8",0.4 nM
